Reference: the supplement of paper PMC6723410

Tested on: GUMC-403
Assay: viability at highest tested concentration (max response) relative to DMSO (% of DMSO control); higher = less cytotoxic
Details: library / dose series: MIPE library, 11-point 1:3 dilution, 48 h
In short: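 Viability at the highest tested concentration is given relative to vehicle control. For this, conditionally reprogrammed patient-derived GUMC-403 papilloma cells at 700/well in 1536-well plates were exposed to 23 nL of pinned compound for 48 h. Luminescence from CellTiter-Glo was read on a ViewLux and scaled between empty wells (0%) and vehicle wells (100%).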

| SMILES | viability (top concentration 46.1 µM) | viability (top concentration 23 µM) |
| --- | --- | --- |
| CN1CCN(C(=O)O[C@H]2c3nccnc3C(=O)N2c2ccc(Cl)cn2)CC1 | 117 |  |
| Nc1nnc(-c2cccc(Cl)c2Cl)c(N)n1 | 82.5 |  |
| CC(C[N+](C)(C)C)OC(N)=O (centres undefined) | 101 |  |
| CCOC(=O)N1CCN(/[N+]([O-])=N/Oc2cc(O/N=[N+](\[O-])N3CCN(C(=O)OCC)CC3)c([N+](=O)[O-])cc2[N+](=O)[O-])CC1 | 118 |  |
| COC1=CC(=C2C(=O)N(COC/3=C/C(=O)N4\C=C/C=C(OCCN5CCCCC5)\C4=N3)[S+]([O-])(=O)C2=C1)C(C)C | 122 |  |
| Nc1nc2ccc(OC(F)(F)F)cc2s1 | 86.9 |  |
| CNC(=O)c1ccc(-c2cnc3ncc(Cc4ccc5ncccc5c4)n3n2)cc1F | 103 |  |
| O=[S+]([O-])(/N=C/c1c(O)ccc2ccccc12)c1cccs1 | 87.9 |  |
| O=C(OCC#CCSc1nnc(-c2cccc3ccccc23)o1)c1cc2ccccc2s1 | 102 |  |
| O=C(Nc1ccccc1)Nc1ccc(-c2ccc(C(=O)[C@@H]3CCC[C@H]3C(=O)O)cc2)cc1 | 128 |  |
| Cc1cc(Cl)ccc1OCCCC(=O)NO | 89.3 |  |
| CN1CCN(c2cccc(Nc3nc4c(-c5ccc([S+](C)(=O)[O-])cc5)cccn4n3)c2)CC1 | 125 |  |
| Cc1cc(Nc2nc(N[C@@H](C)c3ncc(F)cn3)ncc2Cl)n[nH]1 | 163 |  |
| Clc2cccc(Cl)c2\N=C1/NCCN1 | 132 |  |
| O=P1(N(CCCl)CCCl)NCCCO1 (centres undefined) | 116 |  |
| Clc1ccc(COC(Cn2ccnc2)c2ccc(Cl)cc2Cl)cc1 (centres undefined) | 117 |  |
| Cc1ccc(NC(=O)c2cccc(N(C)C)c2)cc1NC(=O)c1ccc(O)cc1 | 96.6 |  |
| CC\12CCC(=O)\C=C1CCC3C2CCC4(C)C3CCC4(O)C#C (centres undefined) | 103 |  |
| CC(=O)OCC(=O)[C@@]12\N=C(C)/O[C@@H]1C[C@H]3[C@@H]4CCC/5=C/C(=O)/C=C\[C@]5(C)[C@H]4[C@@H](O)C[C@]23C | 112 |  |
| O=C1NC(=O)/C(=C/c2ccc3nccnc3c2)S1 |  | 49.8 |
| O=C1NC(=O)/C(=C\c2ccc(-c3ccc(F)cc3)o2)S1 | 106 |  |

| SMILES | viability (top concentration 46.1 µM) | viability (top concentration 23 µM) |
| --- | --- | --- |
| COCCCC/C(=N\OCCN)c1ccc(C(F)(F)F)cc1 | 90 |  |
| CO[C@H]1C[C@H]2OC[C@@]2(OC(C)=O)[C@H]3[C@H](OC(=O)C4=CC=CC=C4)[C@]5(O)C[C@H](OC(=O)[C@H](O)[C@@H](NC(=O)OC(C)(C)C)C6=CC=CC=C6)/C(=C(/[C@@H](OC)C(=O)[C@]13C)C5(C)C)C | 88.5 |  |
| CCCC[S+](=N)([O-])CCC(N)C(=O)O (centres undefined) | 111 |  |
| CC(C)=CCC/C(C)=C/CC/C(C)=C/CSc1ccccc1C(=O)O | 72 |  |
| CC(C)OC(=O)[C@H](C)N[P@](=O)(OC[C@H]1O[C@@H](N2\C=C/C(=O)NC2=O)[C@](C)(F)[C@@H]1O)OC3=CC=CC=C3 | 107 |  |
| COc1cc2ncnc(Nc3ccc(F)c(Cl)c3)c2cc1NC(=O)/C=C/CN1CCCCC1 | 63.8 |  |
| O=C(O)c1ccc(-c2c[nH]c3ncc(-c4ccccc4)cc23)cc1C1CCCC1 | 145 |  |
| C#C[C@]1(O)CC[C@H]2[C@@H]3CCc4cc(O)ccc4[C@H]3CC[C@@]21C | 74.3 |  |
| CC(C(=O)O)c1ccc2c(c1)CC(=O)c1ccccc1S2 (centres undefined) | 103 |  |
| NC1(c2ccc(-c3nc4ccn5c(=O)[nH]nc5c4cc3-c3ccccc3)cc2)CCC1 | 90.4 |  |
| C[C@]1(CO)CN(c2cc(C(=O)Nc3ccc4c(c3)-c3c(c(C(N)=O)nn3-c3ccc(F)cc3)CC4)c(Cl)cn2)C[C@@]1(C)CO | 64.7 |  |
| CCc1ccc(CCOc2ccc(CC3SC(=O)NC3=O)cc2)nc1 (centres undefined) | 103 |  |
| FC1=CC=C(C=C1)N2/C=C\C=C(C(=O)NC3=CC=C(OC4=C5C=C[NH]C5=NC=C4)C(=C3)F)/C2=O | 98.8 |  |
| Cc1cn(-c2cc(NC(=O)c3ccc(C)c(Nc4nccc(-c5cccnc5)n4)c3)cc(C(F)(F)F)c2)cn1 | 130 |  |
| CNC(=O)c1ccc(N2C(=S)N(c3ccc(C#N)c(C(F)(F)F)c3)C(=O)C23CCC3)cc1F | 81.8 |  |
| CCCc1nc(C(C)(C)O)c(C(=O)O)n1Cc1ccc(-c2ccccc2-c2nn[nH]n2)cc1 | 107 |  |
| C[C@](O)(CS(=O)(=O)c1ccc(F)cc1)C(=O)Nc1ccc(C#N)c(C(F)(F)F)c1 | 128 |  |
| CCCCCCOC(=O)/N=C(/N)c1ccc(NCc2nc3cc(C(=O)N(CCC(=O)OCC)c4ccccn4)ccc3n2C)cc1 | 115 |  |
| Fc1ccc([C@@H]2CCNC[C@H]2COc2ccc3c(c2)OCO3)cc1 | 97.2 |  |
| CCN1C[C@]2(OC(=O)c3ccccc3NC(C)=O)CC[C@H](OC)[C@@]34[C@@H]2C[C@@H]([C@@H]13)[C@@]1(O)C[C@H](OC)[C@H]2C[C@@H]4[C@]1(O)[C@H]2OC | 139 |  |
| OC[C@H]1OCC(O1)[N@@]2C=CC(N)=NC2=O (some centres undefined) | 114 |  |

| SMILES | viability (top concentration 46.1 µM) | viability (top concentration 23 µM) |
| --- | --- | --- |
| O=C(O)CCNC(=O)c1ccc(/N=N/c2ccc(O)c(C(=O)O)c2)cc1 | 107 |  |
| CC\1=C(C(\N=C(/N1)C2=CC(=NC=C2)Cl)C3=C(F)C=C(Cl)C=C3)/C(=O)NC4=C(F)C=C5[NH]N=CC5=C4 (centres undefined) | 101 |  |
| NC(=O)c1cccc(N)c1 | 109 |  |
| CN1\C=N/C2=CC=C(NC3=CC(=CC=C3C)NC(=O)C4=CC(=CC=C4)C(C)(C)C#N)C=C2C1=O | 96.2 |  |
| N#Cc1cc(NC(=O)Nc2nnc(-c3ccncc3)s2)ccc1-c1cn[nH]c1 | 101 |  |
| O=C1N\C=N/C2=C1C=N[NH]2 | 106 |  |
| CNCC(O)c1ccc(O)cc1 (centres undefined) | 132 |  |
| CC1=CC(=CC(=C1C\C2=N\CCN2)C)C(C)(C)C | 130 |  |
| CCC[C@H](N[C@@H](C)C(=O)N1[C@H](C(=O)O)C[C@@H]2CCCC[C@@H]21)C(=O)OCC | 120 |  |
| CN[C@@H]1CN(C[C@H]1OC)C2=NC3=C(C=C2)C(=O)C(=C\N3C4=NC=CS4)/C(O)=O |  | 94.4 |
| O=C(c1ccc(Nc2nccc(-c3cc4ccccc4s3)n2)cc1)N1CCC(N2CCCC2)CC1 | 41 |  |
| Cc1coc2c1C(=O)C(=O)c1c-2ccc2c(C)cccc12 | 115 |  |
| CCCCCCCCCCCCCCCCCCCCCCO | 103 |  |
| CC(C)NCC(O)c1ccc(O)c(O)c1 (centres undefined) | 127 |  |
| C[C@]12CC[C@H]3[C@@H](CC[C@@]45O[C@@H]4C(O)=C(C#N)C[C@]35C)[C@@H]1CC[C@@H]2O | 124 |  |
| CCCC(C)(COC(N)=O)COC(=O)NC(C)C (centres undefined) | 117 |  |
| Cn1cc(-c2ccc3nnc(Sc4ccc5ncccc5c4)n3n2)cn1 | 108 |  |
| COC1CCC(CC1)N(C(=O)C2CCC(C)CC2)C3=C(SC(=C3)\C4=C\CCCC4)C(O)=O (centres undefined) | 110 |  |
| CCCCC(=O)O[C@]1(C(=O)CO)[C@H](C)C[C@H]2[C@@H]3CCC4=CC(=O)C=C[C@]4(C)[C@@]3(F)[C@@H](O)C[C@@]21C | 121 |  |
| N#Cc1ccc(C(c2ccc(C#N)cc2)n2cncn2)cc1 | 95.7 |  |
| CN(C)CC[C@H](c1ccc(Cl)cc1)c1ccccn1 | 112 |  |

| SMILES | viability (top concentration 46.1 µM) | viability (top concentration 23 µM) |
| --- | --- | --- |
| CCCCOCCOc1nc(-c2ccc(C(=O)O)c(F)c2)sc1C | 105 |  |
| C[C@](O)(COc1ccc(C#N)cc1)C(=O)Nc1ccc(C#N)c(C(F)(F)F)c1 | 93.8 |  |
| O=C(NCC1CCOCC1)c1cnc(Nc2ccc(Cl)cc2Cl)nc1C(F)(F)F | 141 |  |
| CC[C@H]1OC(=O)[C@H](C)[C@@H](O[C@H]2C[C@@](C)(OC)[C@@H](O)[C@H](C)O2)[C@H](C)[C@@H](O[C@@H]2O[C@H](C)C[C@H](N(C)C)[C@H]2O)[C@](C)(OC)C[C@@H](C)C(=O)[C@H](C)[C@@H](O)[C@]1(C)O | 112 |  |
| Cl.O[C@@H](CNC[C@H](O)[C@H]1CCc2cc(F)ccc2O1)[C@@H]1CCc2cc(F)ccc2O1 | 95.8 |  |
| Cc1cccc(-c2n[nH]cc2-c2ccc3ncccc3n2)n1 | 126 |  |
| CNC(=O)c1cc(Oc2ccc(NC(=O)Nc3cc(C(C)(C)C)nn3-c3ccc4ncccc4c3)c(F)c2)ccn1 | 83.8 |  |
| COc1ccc2cc([C@H](C)C(=O)O)ccc2c1 | 97.3 |  |
| Cc1cc(C(C)(C)C)c(O)c(C)c1CC1=NCCN1 | 120 |  |
| COC(=O)[C@@H]1[C@H]2C[C@H]3c4[nH]c5ccccc5c4CCN3C[C@@H]2CC[C@@H]1O | 128 |  |
| c1cc(CN2CCCNCCNCCCNCC2)ccc1CN1CCCNCCNCCCNCC1 | 144 |  |
| C[C@]12Cc3cn[nH]c3C[C@@H]1CC[C@@H]1[C@@H]2CC[C@@]2(C)[C@H]1CC[C@]2(C)O | 108 |  |
| CCC[C@H](NC(=O)[C@@H]1[C@H]2CCC[C@H]2CN1C(=O)[C@@H](NC(=O)[C@@H](NC(=O)c1cnccn1)C1CCCCC1)C(C)(C)C)C(=O)C(=O)NC1CC1 | 117 |  |
| CC(C)(C)C(=O)Oc1ccc2c(c1)nc(NC(=O)c1cccc([N+](=O)[O-])c1)n2CCCO | 106 |  |
| COc1cc(CCc2cc(NC(=O)c3ccc(N4C[C@@H](C)N[C@@H](C)C4)cc3)n[nH]2)cc(OC)c1 | 81.8 |  |
| CCCCCN(CCC12CC3CC(CC(C3)C1)C2)C(=O)NCCCc1ccncc1 | 89.8 |  |
| Nc1ccc(C(=O)c2cc3c(ccc4ccccc43)[nH]2)cc1 | 109 |  |
| COc1cc2cc(c1Cl)N(C)C(=O)C[C@H](OC(=O)C(C)C)[C@]1(C)O[C@@H]1[C@H](C)[C@@H]1C[C@@](O)(NC(=O)O1)[C@H](OC)/C=C/C=C(\C)C2 | 122 |  |
| Fc1ccc(Cl)cc1-c1nc(Nc2ccncc2)c2nccnc2n1 | 128 |  |
| O=C(O)Cc1cccc(OCCCN(Cc2cccc(C(F)(F)F)c2Cl)CC(c2ccccc2)c2ccccc2)c1 | 136 |  |
| CC(=O)NC(CS)C(=O)O (centres undefined) | 91.1 |  |
